Measured values: paper PMC6941404, “Pigmentosins from Gibellula sp. as antibiofilm agents and a new glycosylated asperfuran from Cordyceps javanica” (Beilstein Journal of Organic Chemistry, 2019)
Where two headings read alike, the source gives them in different places.

How the values were obtained:
[1] = tested on: Staphylococcus aureus DSM1104; assay: Anti-biofilm activity, microtiter dish biofilm formation assay; format: cell-based; details: S. aureus DSM1104 (ATCC25923), lowest concentration preventing biofilm formation by at least 50%, 24 h, NA = No activity
Description: (§1) The isolated compounds were also tested for their ability to interfere in the biofilm formation of Staphylococcus aureus DSM1104 and Pseudomonas aeruginosa PA14 [51]. The biofilm inhibition assay was performed in 96-well microtiter plates using the microtiter dish biofilm formation assay described by O’Toole, with minor modifications, as outlined in our recent publications. The antibiofilm activity is expressed as MIC values, which is defined as the lowest concentration of substance that prevents biofilm formation of a target microorganism by at least 50%. […]
(§2) Anti-biofilm activity assay
(§3) The determination of the ability of isolated compounds to prevent biofilm formation of S. aureus DSM1104 (ATCC25923) and P. aeruginosa PA148 was performed using the microtiter dish biofilm formation assay described by O’Toole9 with minor modification provided in our recent publications 1, 6, 10–14. The biofilm forming strains were enriched overnight in CASO medium with and without 4% glucose for S. aureus and P. aeruginosa , respectively. After incubation at 37 °C under shaking condition, the overnight cultures were adjusted to equal the turbidity of 0.5 McFarland standard using the assay medium. The assay was carried out in 96 -well tissue cultured -treated microplates (TPP®, Germany) for S. aureus and non-treated plates (Falcon®MicroTestTM, USA) for P. aeruginosa , in which 10 μ L of each compound (0.5 mg/m L) in six replicates were mixed together with 140 μ L of bacterial suspension. Methanol and CASO medium with and without 4% glucose were used as negative controls and tetracycline (100 μg/m L) as positive control. Plates were covered with a sterile adhesive porous paper (Kisker Biotech GmbH, Steinfurt, Germany) and incubated at 37 °C for 24 h.
(§4) After incubation, ba cterial biofilms were stained with 0.1% crystal violet solution (Sigma -Aldrich) following the protocol of O’Toole .9 Then, the biofilm was subsequently quantified using a microplate reader at 550 nm. 12 In the current study, the antibiofilm activity was expr essed as MIC value which was defined as the lowest concentration of substance that prevents the biofilm formation of a target microorganism by at least 50%. […]

[2] = tested on: Pseudomonas aeruginosa PA14; assay: as above; format: cell-based; details: lowest concentration preventing biofilm formation by at least 50%, 24 h, NA = No activity
Description: as §1, §2, §3, §4

S. aureus DSM1104 = assay: Bacteriostatic and bactericidal activity assay (Bioscreen growth curves, MBC on agar); format: cell-based, Staphylococcus aureus; details: for MIC90: read-out: Bacteriostatic activity MIC90; for Growth of S. aureus cells relative to growth control: at the lowest concentration where the biofilm formation was interrupted
Description: The assay was performed with each concentration tested in quadruplicates. The MIC was considered as the lowest concentration where the percentage of inhibition was higher than or equal to 90%. The minimum bactericidal concentration (MBC) of isolated compounds was also determined by transferring an aliquot of 2 µL from all concentrations tested onto nutrient agar (NA) plates, which were then incubated at 30 °C for 24 h. The MBC endpoint was defined as the lowest concentration of the compounds that killed microorganisms, where no visible growth of the microorganism tested was observed on the agar plates. The experimental procedures and the results are given in detail in Supporting Information File 1. […]
Bacteriostatic and bactericidal activity assay […]
aeruginosa PA14 were further evaluated for their bacteriostatic and bactericidal activit ies. The assay was performed in the Bioscreen 100 -well Honeycomb plate according to the protocol described by Yuyama et al. 13 where the MIC values were determined. The bacterial inoculum was prepared by growing S. aureus DSM1104 in Luria -Bertani broth (LB) for 24 h at 30 °C and then adjusting to 0.5 McFarland turbidity standard. The 0.5 McFarland bacterial suspension (296.25 µL) was transferred to the well containing 3.75 µL of each compound (20 mg/mL) and was subsequently two -fold diluted to give 8 concentrations ranging from 250 –1.95 µg/mL. Since compound 2 and the remaining five compounds could completely be dissolved in MeOH and dimethyl sulfoxide (DMSO), respectively, MeOH and DMSO were used as the solvent controls. The assay was performed with each concentration tested in quadruplicate. The bacterial growth was monitored on the Bioscreen -C automated growth curve analysis system (Oy Growth Curves AB Ltd, Helsinki, Finland) for 24 h with the optical density at 600 nm measured at 15 -min intervals. The MIC of each compound tested was read at 24 h of incubation and was considered as the lowest concentration where the percentage of inhibition was higher than or equal to 90%. Herein, the minimum bactericidal concentration (MBC) of isolated compounds was also determined by transferring an aliquot of 2 µL from all concentration tested onto Nutrient Agar (NA) plates which were then incubate d at 30 °C for 24 h. The MBC endpoint was defined as the lowest concentration of the compounds that kill microorganisms where no visible growth of the microorganism tested was observed on the agar plates.

[3] = S. aureus, minimum bactericidal concentration, no visible growth on NA plates, 30 °C, 24 h
[4] = Staphylococcus aureus, DSM1104, 24 h

SMILES | Anti-biofilm activity (MIC) SA [1] [µg/mL] | Anti-biofilm activity (MIC) SA ([1]; listed as 1) | Anti-biofilm activity (MIC) PA [2] | Cell growth (%) at 1.9 µg/ml (S. aureus DSM1104; S. aureus, 24 h) [%] | Cell growth (%) at 3.9 µg/ml (S. aureus DSM1104; S. aureus, 24 h) [%] | Cell growth (%) at 7.8 µg/ml (S. aureus DSM1104; S. aureus, 24 h) [%] | Cell growth (%) at 15.6 µg/ml (S. aureus DSM1104; S. aureus, 24 h) [%] | Cell growth (%) at 31.3 µg/ml (S. aureus DSM1104; S. aureus, 24 h) [%] | Cell growth (%) at 62.5 µg/ml (S. aureus DSM1104; S. aureus, 24 h) [%] | Cell growth (%) at 125 µg/ml (S. aureus DSM1104; S. aureus, 24 h) [%] | Cell growth (%) at 250 µg/ml (S. aureus DSM1104; S. aureus, 24 h) [%] | MBC (S. aureus DSM1104; [3]) | MBC (S. aureus DSM1104; [4]) [µg/mL] | MIC90 (S. aureus DSM1104; [4]) [µg/mL] | Growth of S. aureus cells relative to growth control (S. aureus DSM1104) | Anti-biofilm activity (MIC) SA ([1]; listed as 2) | Anti-biofilm activity (MIC) SA ([1]; listed as pigmentosin B (2)) [µg/mL] | MIC90 (S. aureus DSM1104; Staphylococcus aureus, DSM1104, S. aureus, lowest concentration with inhibition >= 90% at 24 h) [µg/mL] | MBC (S. aureus DSM1104; Staphylococcus aureus, DSM1104, S. aureus, minimum bactericidal concentration, no visible growth on NA plates, 30 °C, 24 h, read-out: MBC) [µg/mL]
COc1cc(O)c2c(O)c3c(cc2c1-c1c(OC)cc(O)c2c(O)c4c(cc12)CC(C)OC4=O)CC(C)OC3=O (stereo not shown) [Pigmentosin A (1), pigmentosin A] | 1.9 | active | nor antibiofilm activity | 89.5 | 53.2 | 32.8 | 30.3 | 25.4 | 22.6 | 23.8 | 32.5 | higher than 250 µg/ml | > 250 | > 250 | more than 80% | – | – | – | –
COc1cc(O)c2c(O)c3c(cc2c1-c1c(OC)cc(O)c2c(O)c4c(cc12)CC(CC(C)O)OC4=O)CC(C)OC3=O (stereo not shown) [Pigmentosin B (2), pigmentosin B] | 15.6 | – | nor antibiofilm activity | 100 | 94.4 | 84.9 | 54.3 | 40.9 | 42.8 | 29.9 | 26.8 | higher than 250 µg/ml | – | – | more than 80% | active | 15.6 | > 250 | > 250
